Experimental data reported in PubChem BioAssay AID1963983 (Molecular Pharmacology Branch, DTP, NCI, 2024).

Tested on: 186277-243-T-J2-PDC multi-cell spheroid viability
Experiment: Anticancer human tumor 186277-243-T-J2-PDC patient-derived colon adenocarcinoma cell line growth inhibition [PI3K]
Settings: for IC50: curve of first compound; for viability, T/C: stronger effect = lower value
How it was run: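 Spheroid viability read-out. Co-cultures contained the tumor line plus HUVEC and human MSCs. Each agent was paired with a PI3K inhibitor (inavolisib, alpelisib, duvelisib, copanlisib) across half-log dilutions starting at clinical Cmax, or at 10 microM when Cmax was unknown.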

[1] = second compound 0.0316 µM, first compound 0.0316 µM
[2] = second compound 0.0316 µM, first compound 0.1 µM
[3] = second compound 0.0316 µM, first compound 0.316 µM
[4] = second compound 0.0316 µM, first compound 1 µM
[5] = second compound 0.0316 µM, first compound 3.16 µM
[6] = second compound 0.0316 µM, first compound 10 µM
[7] = second compound 0.1 µM, first compound 0.0316 µM
[8] = second compound 0.1 µM, first compound 0.1 µM
[9] = second compound 0.1 µM, first compound 0.316 µM
[10] = second compound 0.1 µM, first compound 1 µM
[11] = second compound 0.1 µM, first compound 3.16 µM
[12] = second compound 0.1 µM, first compound 10 µM
[13] = second compound 0.316 µM, first compound 0.0316 µM
[14] = second compound 0.316 µM, first compound 0.1 µM
[15] = second compound 0.316 µM, first compound 0.316 µM
[16] = second compound 0.316 µM, first compound 1 µM
[17] = second compound 0.316 µM, first compound 3.16 µM
[18] = second compound 0.316 µM, first compound 10 µM
[19] = second compound 1 µM, first compound 0.0316 µM
[20] = second compound 1 µM, first compound 0.1 µM
[21] = second compound 1 µM, first compound 0.316 µM
[22] = second compound 1 µM, first compound 1 µM
[23] = second compound 1 µM, first compound 3.16 µM
[24] = second compound 1 µM, first compound 10 µM
[25] = second compound 3.16 µM, first compound 0.0316 µM
[26] = second compound 3.16 µM, first compound 0.1 µM
[27] = second compound 3.16 µM, first compound 0.316 µM
[28] = second compound 3.16 µM, first compound 1 µM
[29] = second compound 10 µM, first compound 0.0316 µM
[30] = second compound 10 µM, first compound 0.1 µM
[31] = second compound 10 µM, first compound 0.316 µM
[32] = second compound 10 µM, first compound 1 µM
[33] = second compound 0.0316 µM, first compound 0.00316 µM
[34] = second compound 0.0316 µM, first compound 0.01 µM
[35] = second compound 0.1 µM, first compound 0.00316 µM
[36] = second compound 0.1 µM, first compound 0.01 µM
[37] = second compound 0.316 µM, first compound 0.00316 µM
[38] = second compound 0.316 µM, first compound 0.01 µM
[39] = second compound 1 µM, first compound 0.00316 µM
[40] = second compound 1 µM, first compound 0.01 µM
[41] = second compound 3.16 µM, first compound 0.00316 µM
[42] = second compound 3.16 µM, first compound 0.01 µM
[43] = second compound 10 µM, first compound 0.00316 µM
[44] = second compound 10 µM, first compound 0.01 µM
[45] = second compound 0.00316 µM, first compound 0.0316 µM
[46] = second compound 0.00316 µM, first compound 0.1 µM
[47] = second compound 0.00316 µM, first compound 0.316 µM
[48] = second compound 0.00316 µM, first compound 1 µM
[49] = second compound 0.00316 µM, first compound 3.16 µM
[50] = second compound 0.00316 µM, first compound 10 µM
[51] = second compound 0.01 µM, first compound 0.0316 µM
[52] = second compound 0.01 µM, first compound 0.1 µM
[53] = second compound 0.01 µM, first compound 0.316 µM
[54] = second compound 0.01 µM, first compound 1 µM
[55] = second compound 0.01 µM, first compound 3.16 µM
[56] = second compound 0.01 µM, first compound 10 µM
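Also: spheroids exposed to compounds for seven days before viability reading.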
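For viability, T/C in this document: 100% = DMSO vehicle control viability.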

CC(Cn1ccc(-c2ccc(C#N)c(Cl)c2)n1)NC(=O)c1cc(C(C)O)[nH]n1 (stereo not given) + CC(Nc1ncnc2nc[nH]c12)c1cc2cccc(Cl)c2c(=O)n1-c1ccccc1
IC50 (second compound 0.0316 µM): > 10 µM
IC50 (second compound 0.1 µM): > 10 µM
IC50 (second compound 0.316 µM): > 10 µM
IC50 (second compound 1 µM): > 10 µM
IC50 (second compound 3.16 µM): > 10 µM
IC50 (second compound 10 µM): > 10 µM
viability, T/C [1]: 91%
viability, T/C [2]: 109%
viability, T/C [3]: 101%
viability, T/C [4]: 90.2%
viability, T/C [5]: 93.7%
viability, T/C [6]: 97.9%
viability, T/C [7]: 98.2%
viability, T/C [8]: 94.8%
viability, T/C [9]: 94.9%
viability, T/C [10]: 103%
viability, T/C [11]: 101%
viability, T/C [12]: 88.3%
viability, T/C [13]: 92.3%
viability, T/C [14]: 104%
viability, T/C [15]: 95.7%
viability, T/C [16]: 93.1%
viability, T/C [17]: 98.5%
viability, T/C [18]: 102%
viability, T/C [19]: 92.7%
viability, T/C [20]: 108%
viability, T/C [21]: 114%
viability, T/C [22]: 92.1%
viability, T/C [23]: 94.4%
viability, T/C [24]: 84.1%
viability, T/C [25]: 89.6%
viability, T/C [26]: 102%
viability, T/C [27]: 116%
viability, T/C [28]: 97.3%
viability, T/C (second compound 3.16 µM, first compound 3.16 µM): 106%
viability, T/C (second compound 3.16 µM, first compound 10 µM): 94.5%
viability, T/C [29]: 98%
viability, T/C [30]: 83.4%
viability, T/C [31]: 84.3%
viability, T/C [32]: 98.9%
viability, T/C (second compound 10 µM, first compound 3.16 µM): 90.1%
viability, T/C (second compound 10 µM, first compound 10 µM): 78.8%

CCN1CCN(Cc2ccc(Nc3ncc(F)c(-c4cc(F)c5nc(C)n(C(C)C)c5c4)n3)nc2)CC1 + Cc1nc(NC(=O)N2CCCC2C(N)=O)sc1-c1ccnc(C(C)(C)C(F)(F)F)c1
IC50 (second compound 0.0316 µM): > 1 µM
IC50 (second compound 0.1 µM): > 1 µM
IC50 (second compound 0.316 µM): > 1 µM
IC50 (second compound 1 µM): > 1 µM
IC50 (second compound 3.16 µM): < 0.00316 µM
IC50 (second compound 10 µM): < 0.00316 µM
viability, T/C [33]: 96.7%
viability, T/C [34]: 116%
viability, T/C [1]: 107%
viability, T/C [2]: 139%
viability, T/C [3]: 147%
viability, T/C [4]: 137%
viability, T/C [35]: 97.4%
viability, T/C [36]: 93%
viability, T/C [7]: 105%
viability, T/C [8]: 127%
viability, T/C [9]: 145%
viability, T/C [10]: 124%
viability, T/C [37]: 97.9%
viability, T/C [38]: 114%
viability, T/C [13]: 104%
viability, T/C [14]: 103%
viability, T/C [15]: 116%
viability, T/C [16]: 92.5%
viability, T/C [39]: 101%
viability, T/C [40]: 90.2%
viability, T/C [19]: 77.9%
viability, T/C [20]: 78.1%
viability, T/C [21]: 74%
viability, T/C [22]: 62.8%
viability, T/C [41]: 49.8%
viability, T/C [42]: 47.5%
viability, T/C [25]: 42.1%
viability, T/C [26]: 37%
viability, T/C [27]: 41.4%
viability, T/C [28]: 28.6%
viability, T/C [43]: 15.8%
viability, T/C [44]: 14.2%
viability, T/C [29]: 10.7%
viability, T/C [30]: 9%
viability, T/C [31]: 12.5%
viability, T/C [32]: 12%

CC(Cn1ccc(-c2ccc(C#N)c(Cl)c2)n1)NC(=O)c1cc(C(C)O)[nH]n1 (stereo not given) + CC(Nc1ccc2c(c1)OCCn1cc(N3C(=O)OCC3C(F)F)nc1-2)C(N)=O
IC50 (second compound 0.00316 µM): > 10 µM
IC50 (second compound 0.01 µM): > 10 µM
IC50 (second compound 0.0316 µM): > 10 µM
IC50 (second compound 0.1 µM): > 10 µM
IC50 (second compound 0.316 µM): > 10 µM
IC50 (second compound 1 µM): < 0.0316 µM
viability, T/C [45]: 97.8%
viability, T/C [46]: 97%
viability, T/C [47]: 91.3%
viability, T/C [48]: 84.9%
viability, T/C [49]: 93.6%
viability, T/C [50]: 102%
viability, T/C [51]: 101%
viability, T/C [52]: 93.2%
viability, T/C [53]: 95.6%
viability, T/C [54]: 91.6%
viability, T/C [55]: 108%
viability, T/C [56]: 91.7%
viability, T/C [1]: 106%
viability, T/C [2]: 95.3%
viability, T/C [3]: 102%
viability, T/C [4]: 111%
viability, T/C [5]: 111%
viability, T/C [6]: 95.5%
viability, T/C [7]: 104%
viability, T/C [8]: 107%
viability, T/C [9]: 101%
viability, T/C [10]: 90.1%
viability, T/C [11]: 88.8%
viability, T/C [12]: 74.4%
viability, T/C [13]: 81.3%
viability, T/C [14]: 82%
viability, T/C [15]: 74.6%
viability, T/C [16]: 73%
viability, T/C [17]: 67.7%
viability, T/C [18]: 57.7%
viability, T/C [19]: 47.7%
viability, T/C [20]: 45.9%
viability, T/C [21]: 44.9%
viability, T/C [22]: 45.6%
viability, T/C [23]: 44%
viability, T/C [24]: 35.4%

CCN1CCN(Cc2ccc(Nc3ncc(F)c(-c4cc(F)c5nc(C)n(C(C)C)c5c4)n3)nc2)CC1 + CC(Nc1ncnc2nc[nH]c12)c1cc2cccc(Cl)c2c(=O)n1-c1ccccc1
IC50 (second compound 0.0316 µM): > 1 µM
IC50 (second compound 0.1 µM): > 1 µM
IC50 (second compound 0.316 µM): > 1 µM
IC50 (second compound 1 µM): > 1 µM
IC50 (second compound 3.16 µM): > 1 µM
IC50 (second compound 10 µM): > 1 µM
viability, T/C [33]: 94.6%
viability, T/C [34]: 85.9%
viability, T/C [1]: 104%
viability, T/C [2]: 108%
viability, T/C [3]: 166%
viability, T/C [4]: 160%
viability, T/C [35]: 98.9%
viability, T/C [36]: 84%
viability, T/C [7]: 103%
viability, T/C [8]: 120%
viability, T/C [9]: 148%
viability, T/C [10]: 148%
viability, T/C [37]: 93.5%
viability, T/C [38]: 97.6%
viability, T/C [13]: 100%
viability, T/C [14]: 124%
viability, T/C [15]: 136%
viability, T/C [16]: 143%
viability, T/C [39]: 104%
viability, T/C [40]: 99.4%
viability, T/C [19]: 104%
viability, T/C [20]: 120%
viability, T/C [21]: 155%
viability, T/C [22]: 129%
viability, T/C [41]: 102%
viability, T/C [42]: 107%
viability, T/C [25]: 100%
viability, T/C [26]: 119%
viability, T/C [27]: 124%
viability, T/C [28]: 108%
viability, T/C [43]: 78.3%
viability, T/C [44]: 88%
viability, T/C [29]: 95.9%
viability, T/C [30]: 97.7%
viability, T/C [31]: 102%
viability, T/C [32]: 78.3%

C=CC(=O)N1CCN(c2nc(=O)n(-c3c(C)ccnc3C(C)C)c3nc(-c4c(O)cccc4F)c(F)cc23)C(C)C1 (stereo not given) + COc1c(OCCCN2CCOCC2)ccc2c3n(c(=NC(=O)c4cnc(N)nc4)nc12)CCN3
IC50 (second compound 0.00316 µM): > 10 µM
IC50 (second compound 0.01 µM): > 10 µM
IC50 (second compound 0.0316 µM): 1.87 µM
IC50 (second compound 0.1 µM): < 0.0316 µM
IC50 (second compound 0.316 µM): < 0.0316 µM
IC50 (second compound 1 µM): < 0.0316 µM
viability, T/C [45]: 102%
viability, T/C [46]: 88.7%
viability, T/C [47]: 88.1%
viability, T/C [48]: 88.1%
viability, T/C [49]: 93.2%
viability, T/C [50]: 73%
viability, T/C [51]: 93.1%
viability, T/C [52]: 88.2%
viability, T/C [53]: 94.4%
viability, T/C [54]: 93.6%
viability, T/C [55]: 87.8%
viability, T/C [56]: 62.3%
viability, T/C [1]: 59.7%
viability, T/C [2]: 67.1%
viability, T/C [3]: 57.5%
viability, T/C [4]: 52.6%
viability, T/C [5]: 47.8%
viability, T/C [6]: 31.2%
viability, T/C [7]: 18.3%
viability, T/C [8]: 18.1%
viability, T/C [9]: 14.9%
viability, T/C [10]: 12.3%
viability, T/C [11]: 11.1%
viability, T/C [12]: 10.9%
viability, T/C [13]: 6.24%
viability, T/C [14]: 4.28%
viability, T/C [15]: 3.7%
viability, T/C [16]: 4.23%
viability, T/C [17]: 7.04%
viability, T/C [18]: 4.1%
viability, T/C [19]: 1.93%
viability, T/C [20]: 4.05%
viability, T/C [21]: 1.66%
viability, T/C [22]: 2.03%
viability, T/C [23]: 2.92%
viability, T/C [24]: 2.49%
